This passage reports IC50 results from US10590105B2, “1,3-dihydroxy-phenyl derivatives useful as immunomodulators” (BRISTOL-MYERS SQUIBB COMPANY, priority 2016, dated 2020).

In the experiment the target is PD-1/PD-L1 interaction (PD-1-Ig / PD-L1-His) (Homo sapiens (Human), UniProt Q9NZQ7). Kind of experiment: PD-1/PD-L1 Homogenous Time-Resolved Fluorescence (HTRF) binding assay. The following applies: PD-1/PD-L1 HTRF binding assay, read-out: Range or IC50. The text has this: The ability of the compounds of formula (I) to bind to PD-L1 was investigated using a PD-1/PD-L1 Homogenous Time-Resolved Fluorescence (HTRF) binding assay.
Sequence of PD-1/PD-L1 interaction (PD-1-Ig / PD-L1-His) (Q9NZQ7 other isoform, or with tags, fused parts or gaps): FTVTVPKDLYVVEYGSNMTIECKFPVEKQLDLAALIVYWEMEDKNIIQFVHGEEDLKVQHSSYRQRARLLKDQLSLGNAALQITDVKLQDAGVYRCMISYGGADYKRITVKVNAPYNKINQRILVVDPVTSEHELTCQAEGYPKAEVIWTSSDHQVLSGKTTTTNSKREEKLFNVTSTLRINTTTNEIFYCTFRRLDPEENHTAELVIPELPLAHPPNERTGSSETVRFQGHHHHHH
Homogenous Time-Resolved Fluorescence (HTRF) Binding Assay.
The interaction of PD-1 and PD-L1 can be assessed using soluble, purified preparations of the extracellular domains of the two proteins. The PD-1 and PD-L1 protein extracellular domains were expressed as fusion proteins with detection tags, for PD-1, the tag was the Fc portion of Immunoglobulin (PD-1-Ig) and for PD-L1 it was the 6 histidine motif (PD-L1-His). All binding studies were performed in an HTRF assay buffer consisting of dPBS supplemented with 0.1% […] bovine serum albumin and 0.05% (v/v) Tween-20. For the h/PD-L1-His binding assay, inhibitors were pre-incubated with PD-L1-His (10 nM final) for 15 m in 4 μl of assay buffer, followed by addition of PD-1-Ig (20 nM final) in 1 μl of assay buffer and further incubation for 15 m. HTRF detection was achieved using europium crypate-labeled anti-Ig (1 nM final) and allophycocyanin (APC) labeled anti-His (20 nM final). Antibodies were diluted in HTRF detection buffer and 5 μl was dispensed on top of the binding reaction. The reaction mixture was allowed to equilibrate for 30 minutes and the resulting signal (665 nm/620 nm ratio) was obtained using an EnVision fluorometer. Additional binding assays were established between the human proteins PD-1-Ig/PD-L2-His (20 & 5 nM, respectively) and CD80-His/PD-L1-Ig (100 & 10 nM, respectively).
Recombinant Proteins. Human PD-1 (25-167) with a C-terminal human Fc domain of immunoglobulin G (Ig) epitope tag [hPD-1 (25-167)-3S-IG] and human PD-L1 (18-239) with a C-terminal His epitope tag [hPD-L1(18-239)-TVMV-His] were expressed in HEK293T cells and purified sequentially by ProteinA affinity chromatography and size exclusion chromatography. Human PD-L2-His and CD80-His was obtained through commercial sources.
Ranges are as follows: A=0.001 to 0.010 micromolar; B=0.011 to 0.150 micromolar; C=0.151 to 10 micromolar.
A general note: TR-FRET usually uses a lanthanide donor and a delayed reading to cut background.

Read-outs that look alike come from different tables or passages of the source.

With “2-((5-chloro-2-((5-cyanopyridin-3-yl)methoxy)-4-((3-(1-(2-(dimethylamino)ethyl)-1H-benzo[d]imidazol-6-yl)-2-methylbenzyl)oxy)benzyl)amino)-2-methylpropanoic acid and 2-((5-chloro-2-((5-cyanopyridin-3-yl)methoxy)-4-((3-(1-(2-(dimethylamino)ethyl)-1H-benzo[d]imidazol-5-yl)-2-methylbenzyl)oxy)benzyl)amino)-2-methylpropanoic acid [Example 1026]”, the IC50 – broadly, the concentration at which inhibition is half-maximal – (value given as range class) is 151 to 10000 nM.

As to `Cc1c(COc2cc(OCc3cncc(C#N)c3)c(CN[C@](C)(CO)C(=O)O)cc2Cl)cccc1-c1ccc2cccnc2c1` [Example 1001, (R)-2-((5-chloro-2-((5-cyanopyridin-3-yl)methoxy)-4-((2-methyl-3-(quinolin-7-yl)benzyl)oxy)benzyl)amino)-3-hydroxy-2-methylpropanoic acid], the IC50 (value given as range class) was 11 to 150 nM.

Turning to `Cc1c(COc2cc(OCc3cncc(C#N)c3)c(CN[C@](C)(CO)C(=O)O)cc2Cl)cccc1-c1cnc2ccccc2c1` [Example 1002, (R)-2-((5-chloro-2-((5-cyanopyridin-3-yl)methoxy)-4-((2-methyl-3-(quinolin-3-yl)benzyl)oxy)benzyl)amino)-3-hydroxy-2-methylpropanoic acid], the IC50 (value given as range class) is 151 to 10000 nM.

For the molecule `Cc1c(COc2cc(OCc3cncc(C#N)c3)c(CN3CCCC[C@H]3C(=O)O)cc2Cl)cccc1-c1cnc2ccccc2c1` [Example 1003, (S)-1-(5-chloro-2-((5-cyanopyridin-3-yl)methoxy)-4-((2-methyl-3-(quinolin-3-yl)benzyl)oxy)benzyl) piperidine-2-carboxylic acid], where the note is “value given as range class”, the IC50 lay within 151 to 10000 nM.

Take `Cc1c(COc2cc(OCc3cncc(C#N)c3)c(CN[C@](C)(CO)C(=O)O)cc2Cl)cccc1-c1ccc2ccccc2n1` [Example 1004, (R)-2-((5-chloro-2-((5-cyanopyridin-3-yl)methoxy)-4-((2-methyl-3-(quinolin-2-yl)benzyl)oxy)benzyl)amino)-3-hydroxy-2-methylpropanoic acid]: the IC50 (value given as range class) was 151 to 10000 nM.

For the molecule `Cc1c(COc2cc(OCc3cncc(C#N)c3)c(CN[C@](C)(CO)C(=O)O)cc2Cl)cccc1-c1ccc2ncccc2c1` [Example 1005, (R)-2-((5-chloro-2-((5-cyanopyridin-3-yl)methoxy)-4-((2-methyl-3-(quinolin-6-yl)benzyl)oxy)benzyl)amino)-3-hydroxy-2-methylpropanoic acid], the IC50 (value given as range class) was 151 to 10000 nM.

Regarding `Cc1c(COc2cc(OCc3cncc(C#N)c3)c(CN[C@](C)(CO)C(=O)O)cc2Cl)cccc1-c1cc2ccccc2cn1` [Example 1007, (R)-2-((5-chloro-2-((5-cyanopyridin-3-yl)methoxy)-4-((3-(isoquinolin-3-yl)-2-methylbenzyl)oxy)benzyl)amino)-3-hydroxy-2-methylpropanoic acid], the IC50 (value given as range class) is 151 to 10000 nM.

In the case of `Cc1c(COc2cc(OCc3cncc(C#N)c3)c(CN[C@](C)(CO)C(=O)O)cc2Cl)cccc1-c1ccc2ccncc2c1` [Example 1008, (R)-2-((5-chloro-2-((5-cyanopyridin-3-yl)methoxy)-4-((3-(isoquinolin-7-yl)-2-methylbenzyl)oxy)benzyl)amino)-3-hydroxy-2-methylpropanoic acid], the IC50 (value given as range class) is 11 to 150 nM.

Regarding `Cc1c(COc2cc(OCc3cncc(C#N)c3)c(CN[C@](C)(CO)C(=O)O)cc2Cl)cccc1-c1ccc2cnccc2c1` [Example 1009, (R)-2-((5-chloro-2-((5-cyanopyridin-3-yl)methoxy)-4-((3-(isoquinolin-6-yl)-2-methylbenzyl)oxy)benzyl)amino)-3-hydroxy-2-methylpropanoic acid], the IC50 (value given as range class) lay in the range of 11 to 150 nM.

For `Cc1c(COc2cc(OCc3cncc(C#N)c3)c(CN[C@](C)(CO)C(=O)O)cc2Cl)cccc1-c1cnc2ccc(Br)cc2n1` [Example 1010, (R)-2-((4-((3-(7-bromoquinoxalin-2-yl)-2-methylbenzyl)oxy)-5-chloro-2-((5-cyanopyridin-3-yl)methoxy)benzyl)amino)-3-hydroxy-2-methylpropanoic acid], the IC50 (value given as number) was 1570 nM.

For `Cc1c(COc2cc(OCc3cncc(C#N)c3)c(CN[C@](C)(CO)C(=O)O)cc2Cl)cccc1-c1ccc2ncsc2c1` [Example 1011, (R)-2-((4-((3-(benzo[d]thiazol-6-yl)-2-methylbenzyl)oxy)-5-chloro-2-((5-cyanopyridin-3-yl)methoxy)benzyl)amino)-3-hydroxy-2-methylpropanoic acid], the IC50 (value given as range class) was 11 to 150 nM.

Regarding `Cc1c(COc2cc(OCc3cncc(C#N)c3)c(CN[C@](C)(CO)C(=O)O)cc2Cl)cccc1-c1ccc2ocnc2c1` [Example 1012, (R)-2-((4-((3-(benzo[d]oxazol-5-yl)-2-methylbenzyl)oxy)-5-chloro-2-((5-cyanopyridin-3-yl)methoxy)benzyl)amino)-3-hydroxy-2-methylpropanoic acid], the IC50 (value given as range class) was in the range of 1 to 10 nM.

Take `Cc1c(COc2cc(OCc3cncc(C#N)c3)c(CN[C@](C)(CO)C(=O)O)cc2Cl)cccc1-c1ccc2occc2c1` [Example 1013, (R)-2-((4-((3-(benzofuran-5-yl)-2-methylbenzyl)oxy)-5-chloro-2-((5-cyanopyridin-3-yl)methoxy)benzyl)amino)-3-hydroxy-2-methylpropanoic acid]: where the note is “value given as range class”, the IC50 lay in the range of 11 to 150 nM.

In the case of `Cc1c(COc2cc(OCc3cncc(C#N)c3)c(CN[C@@H](CCCNC(=N)N)C(=O)O)cc2Cl)cccc1-c1ccc2occc2c1` [Example 1014, (S)-2-((4-((3-(benzofuran-5-yl)-2-methylbenzyl)oxy)-5-chloro-2-((5-cyanopyridin-3-yl)methoxy)benzyl)amino)-5-guanidinopentanoic acid], the IC50 (value given as range class) is 151 to 10000 nM.

On to `Cc1c(COc2cc(OCc3cncc(C#N)c3)c(CNC(C)(C)C(=O)O)cc2Cl)cccc1-c1ccc2occc2c1` [Example 1015, 2-((4-((3-(benzofuran-5-yl)-2-methylbenzyl)oxy)-5-chloro-2-((5-cyanopyridin-3-yl)methoxy)benzyl)amino)-2-methylpropanoic acid], for which the IC50 (value given as range class) was in the range of 11 to 150 nM.

Regarding `Cc1c(COc2cc(OCc3cncc(C#N)c3)c(CNC(C)(C)C(=O)O)cc2Cl)cccc1-c1ccc2ncoc2c1` [Example 1016, 2-((4-((3-(benzo[d]oxazol-6-yl)-2-methylbenzyl)oxy)-5-chloro-2-((5-cyanopyridin-3-yl)methoxy)benzyl)amino)-2-methylpropanoic acid], the IC50 (value given as range class) is 1 to 10 nM.

Consider `Cc1c(COc2cc(OCc3cncc(C#N)c3)c(CN[C@](C)(CO)C(=O)O)cc2Cl)cccc1-c1ccc2ncoc2c1` [Example 1017, (R)-2-((4-((3-(benzo[d]oxazol-6-yl)-2-methylbenzyl)oxy)-5-chloro-2-((5-cyanopyridin-3-yl)methoxy)benzyl)amino)-3-hydroxy-2-methylpropanoic acid], for which, where the note is “value given as range class”, the IC50 fell in the range of 11 to 150 nM.

`Cc1c(COc2cc(OCc3cncc(C#N)c3)c(CNC(C)(C)C(=O)O)cc2Cl)cccc1-c1ccc2ccoc2c1` [Example 1018, 2-((4-((3-(benzofuran-6-yl)-2-methylbenzyl)oxy)-5-chloro-2-((5-cyanopyridin-3-yl)methoxy)benzyl)amino)-2-methylpropanoic acid]: under “value given as range class”, the IC50 was 11 to 150 nM.

As for `Cc1c(COc2cc(OCc3cncc(C#N)c3)c(CN[C@](C)(CO)C(=O)O)cc2Cl)cccc1-c1ccc2ccoc2c1` [Example 1019, (R)-2-((4-((3-(benzofuran-6-yl)-2-methylbenzyl)oxy)-5-chloro-2-((5-cyanopyridin-3-yl)methoxy)benzyl)amino)-3-hydroxy-2-methylpropanoic acid], the IC50 (value given as range class) was in the range of 1 to 10 nM.
